Measurements taken from US20100255020A1, “METHOD FOR INDUCING CYTOTOXIC T-CELLS, CYTOTOXIC T-CELL INDUCERS, AND PHARMACEUTICAL COMPOSITIONS AND VACCINES EMPLOYING THEM” (NEC CORPORATION, priority 2007, published 2010).
Where “and” joins values, the source holds several entries; their conditions need not be identical. Equal entries are not always repeated. Where no end group is shown, it is not given here.

Legend:
HLA-A*0201 molecule = HLA-A*0201 molecule (Homo sapiens, UniProt P04439, D140Y/D185E/D98H/E176V/E277Q/G131W/G231S/I119V/I121R/I166T/I218V/L300P/L318F/N151K/N90K/P208A/P217A/Q86G/Q94H/R138H/R169H/T345S); assay: Peptide binding to HLA-A*0201 molecule on JY cells (flow cytometry, Kd); details: HLA-A*0201, JY cells
Method: The ability of a peptide to bind to an HLA-A*0201 molecule, which is a product of the HLA-A*0201 gene, was measured using strain JY cells expressing the HLA-A*0201 molecule.
JY cells were first exposed to acidic conditions at a pH of 3.8 for 30 seconds, thus dissociating and removing a β2m light chain and an endogenous peptide, which were noncovalently associated with the HLA-A* 0201 molecule. After neutralization, a reconstitution experiment was carried out.
The above-mentioned JY cells and the purified […] were added to serial dilutions of peptide for which the binding ability needs to be measured, and incubation was carried out on ice for 4 hours. HLA-A*0201 molecules that had reassociated up to this time point were stained using the fluorescently-labeled monoclonal antibody BB7.2, a conformation dependent monoclonal Ab specific for an assembled form of HLA-A*0201 molecule.
Subsequently, the amount of fluorescence per cell was measured using a flow cytometer and a dissociation constant Kd value was calculated by a method published in the literature (Udaka et al., Immunogenetics, 51, 816-828, 2000).

malignant tumors = assay: Peptide immunotherapy of patients, tumor response by RECIST criteria (CT/MRI); assay type: in vivo, human; design: key to RECIST, single lung metastasis / RECIST, total sum of longest diameters of 10 metastatic target lesions / RECIST, pubic bone metastatic tumor / RECIST determination 3 months after starting W10 peptide therapy: CR: all target lesions have disappeared; PR: the sum of the longest diameters of the target lesions decreases by at least 30%; PD: the sum of the longest diameters of the target lesions increases by at least 20%; SD: the change of tumr size is between PR or PD
Method: Among 18 patients, 3 people are illustrated in the style of case reports. […] The mixture was prepared immediately prior to administration. When W10 peptide was administered without petussis vaccine in the safety test, W10 peptide solution was divided into 4 equal portions and injected intradermally at 4 locations in the same manner. A method to measure the diameter of a tumor and a method to analyze peptide-specific T-cells using an HLA-A24 tetramer by flow cytometry are described below.
The international RECIST criteria referred to here is an evaluation standard described in Theresse, P. et al., J Natl Cancer Inst. 2000, 92, 205-216. When there is confirmation by helical CT or MRI that all target lesions have disappeared this is defined as CR (complete response), when the sum of the longest diameters of the target lesions decreases by at least 30% this is defined as PR (partial response), when the sum of the longest diameters of the target lesions increases by at least 20% this is defined as PD (progressive disease), and when the change of tumr size is between PR or PD this is defined as SD (stable disease). However, regardless of the presence or absence of a change in the target lesions, when even one new lesion appears this is defined as PD.
Based on the above-mentioned international RECIST criteria, which is used for evaluation of anticancer drugs, all measurable tumors were selected as target tumors, and change in the SLD of the tumors over the course of the therapy was monitored. In addition, number of all the tumors was counted, regardless of the size of a tumor, every time diagnostic imaging was carried out in order to lookout for new lesions. Diagnostic imaging was carried out in principle once a month by helical CT or MRI. If even one new metastasis appeared, regardless of the change in the primary lesion, it was judged as PD.
Clinical responses were evaluated according to the aforementioned international RECIST criteria for 18 patients who had been treated by immunotherapy using W10+Wc for at least 3 months and one week. Eight cased out of 18 patients were judged as SD, 10 cased were PD. […] In reports on peptide immunotherapy so far, the tumor control rate was limited to a few % up to ten or so % worldwide (Reference Documents 1 to 4). Compared with these already reported cases, this is a good reaction.

HLA-A*2402 molecule = HLA-A*2402 molecule (Homo sapiens, UniProt P04439, D101N/D140Y/D185E/E176V/E190D/F33S/G103R/G107R/I119L/I121M/I306V/K335N/L105A/L180Q/L300P/N151K/N90K/Q86E/Q94H/R106L/R138H/R89G/T104I/T345S/V100E/W191G/Y123F); assay: Peptide binding to HLA-A*2402 molecule on C1R-A24 cells (flow cytometry, Kd); details: HLA-A*2402, C1R-A24 cells; read-out: Binding assay data (−log Kd) (converted)
Method: The ability of a peptide to bind to an HLA-A*2402 molecule, which is a product of the HLA-A*2402 gene, was measured using C1R-A24 cells expressing the HLA-A*2402 molecule (cells generated by Professor Masafumi Takiguchi, Kumamoto University being supplied with permission by Associate Professor Masaki Yasukawa, Ehime University).
C1R-A24 cells were first exposed to acidic conditions at a pH of 3.3 for 30 seconds, thus dissociating and removing a β2m light chain, which is associated with HLA class I molecules in common, and an endogenous peptide originally bound to the HLA-A*2402 molecule. After neutralization, purified β2m was added to C1R-A24 cells, the obtained product was added to serial dilutions of a peptide, and incubated on ice for 4 hours. […]
Subsequently, the number of MHC-pep complexes per C1R-A24 cell (proportional to the intensity of fluorescence of the above-mentioned fluorescent antibody) was quantitatively measured using a FACScan fluorescence-activated flow cytometer (Becton Dickinson Biosciences). A dissociation constant Kd value between the HLA-A*2402 molecule and the peptide was calculated from the average intensity of fluorescence per cell by a method published in the literature (Udaka et al., Immunogenetics, 51, 816-828, 2000).

ALLPAVPSL [W10]
Binding assay data (−log Kd) (HLA-A*0201 molecule): 7.84 | Duration of tumor control (weeks) (malignant tumors; one line per patient case, W10+Wc immunotherapy, weekly intradermal, listed as W10 peptide): 37 weeks and 30 weeks and 32 weeks and 10 weeks and 4 weeks and 0 weeks (6×) and 6 weeks and 17 weeks and 19 weeks and 12 weeks and 33 weeks and 38 weeks | RECIST determination 3 months after starting W10 peptide therapy (malignant tumors; one line per patient case, W10+Wc immunotherapy, listed as W10 peptide): SD (7×) and SD > PD and PD (the sum of the longest diameters of the target lesions increases by at least 20%) (10×) | RECIST, pubic bone metastatic tumor (malignant tumors; patient KB07-003, maintained for 37 weeks): SD | New metastatic tumors (malignant tumors; patient KB07-003, since W10 therapy started): no new metastatic tumors have been found | Growth of metastatic tumor in the bone (SLD) (malignant tumors; patient KB07-005, right femur): almost stopped | New distant metastasis (malignant tumors; patient KB07-005, throughout the period): no new distant metastasis was observed | Growth of tumors expressing WT1 (malignant tumors; patient KB07-006): suppressed | Appearance of new metastatic lesion (malignant tumors; patient KB07-006, 13 months after starting W10 peptide): no appearance of a new metastatic lesion | RECIST, total sum of longest diameters of 10 metastatic target lesions (malignant tumors; patient KB07-006, CT on the 37th week): PD (the sum of the longest diameters of the target lesions increases by at least 20%) | RECIST, total sum of longest diameters of 10 metastatic target lesions (malignant tumors; patient KB07-006, adenoid cystic carcinoma, up to 32 weeks): SD | Kd (HLA-A*2402 molecule): 692 pM
